Reference: ChEMBL document CHEMBL1201862, “PubChem BioAssay data set” (2004)
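Exposure lasted 48 hours, with cells grown in 96-well plates and compounds tested at five concentrations. Abbreviation: GI50, concentration required for 50% inhibition of growth.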 Activity calls are given as the source filed them. Cut-off read from the data, not from the text of the source: active = GI50 up to about 1.1 µM and inactive = higher.

Experiments:
Test in all cases: growth of human tumour cells (NCI), 48 h
OVCAR-3 = tested on: OVCAR-3
HCC 2998 = tested on: HCC 2998
COLO 205 = tested on: COLO 205
786-0 = tested on: 786-0
SF-268 = tested on: SF-268
UACC-257 = tested on: UACC-257
ACHN = tested on: ACHN
HOP-92 = tested on: HOP-92
M19-MEL = tested on: M19-MEL
CAKI-1 = tested on: CAKI-1
UACC-62 = tested on: UACC-62
LOX IMVI = tested on: LOX IMVI
MOLT-4 = tested on: MOLT-4
SK-MEL-28 = tested on: SK-MEL-28
RXF 393 = tested on: RXF 393
LXFL 529 = tested on: LXFL 529
HL-60 = tested on: HL-60
NCI-H226 = tested on: NCI-H226
OVCAR-5 = tested on: OVCAR-5
U-251 = tested on: U-251
CCRF-CEM = tested on: CCRF-CEM
NCI-H460 = tested on: NCI-H460
HOP-62 = tested on: HOP-62
K562 = tested on: K562
UO-31 = tested on: UO-31
RXF 631 = tested on: RXF 631
SNB-75 = tested on: SNB-75
M14 = tested on: M14
DLD-1 = tested on: DLD-1
DMS-273 = tested on: DMS-273
DMS-114 = tested on: DMS-114
OVCAR-4 = tested on: OVCAR-4
SK-MEL-2 = tested on: SK-MEL-2
Malme-3M = tested on: Malme-3M
IGROV-1 = tested on: IGROV-1
HT-29 = tested on: HT-29
XF498 = tested on: XF498
RPMI-8226 = tested on: RPMI-8226
SF-295 = tested on: SF-295
A498 = tested on: A498
SN12C = tested on: SN12C
NCI-H23 = tested on: NCI-H23
SNB-19 = tested on: SNB-19
HCT-116 = tested on: HCT-116
KM12 = tested on: KM12
OVCAR-8 = tested on: OVCAR-8
SK-MEL-5 = tested on: SK-MEL-5
SK-OV-3 = tested on: SK-OV-3
SF-539 = tested on: SF-539
KM-20L2 = tested on: KM-20L2
SW-620 = tested on: SW-620
SNB-78 = tested on: SNB-78
SR = tested on: SR
HOP-18 = tested on: HOP-18
HCT-15 = tested on: HCT-15
TK-10 = tested on: TK-10
EKVX = tested on: EKVX
A549 = tested on: A549

With `COc1ccc2oc(-c3cccnc3)cc(=O)c2c1` as the compound, how does the GI50 (OVCAR-3) read?
The GI50 was 91.8 µM (inactive).

What about the GI50 (HCC 2998) of the same compound?
The GI50 was > 100 µM (inactive).

And the GI50 (COLO 205)?
Its GI50 is > 100 µM (inactive).

And the GI50 (786-0)?
The GI50 was > 100 µM (inactive).

What about the GI50 (SF-268) of the same compound?
Its GI50 is 58.3 µM (inactive).

What about the GI50 (UACC-257) of the same compound?
The GI50 was > 100 µM (inactive).

What about the GI50 (ACHN) of the same compound?
The GI50 was 59.3 µM (inactive).

What about the GI50 (HOP-92) of the same compound?
Its GI50 is 46.1 µM (inactive).

What about the GI50 (M19-MEL) of the same compound?
The GI50 was > 100 µM (inactive).

What about the GI50 (CAKI-1) of the same compound?
The GI50 was 42.7 µM (inactive).

What about the GI50 (UACC-62) of the same compound?
The GI50 was 80.7 µM (inactive).

What about the GI50 (LOX IMVI) of the same compound?
Its GI50 is 47.5 µM (inactive).

What about the GI50 (MOLT-4) of the same compound?
The GI50 was 36.6 µM (inactive).

And the GI50 (SK-MEL-28)?
Its GI50 is > 100 µM (inactive).

And the GI50 (RXF 393)?
The GI50 was > 100 µM (inactive).

What about the GI50 (LXFL 529) of the same compound?
The GI50 was 71.6 µM (inactive).

And the GI50 (HL-60)?
Its GI50 is 52.5 µM (inactive).

And the GI50 (NCI-H226)?
The GI50 was > 100 µM (inactive).

What about the GI50 (OVCAR-5) of the same compound?
The GI50 was > 10 µM (inactive).

What about the GI50 (U-251) of the same compound?
Its GI50 is > 100 µM (inactive).

And the GI50 (CCRF-CEM)?
The GI50 was 49.9 µM (inactive).

And the GI50 (NCI-H460)?
Its GI50 is 32.4 µM (inactive).

And the GI50 (HOP-62)?
The GI50 was 84.7 µM (inactive).

What about the GI50 (K562) of the same compound?
Its GI50 is 67.8 µM (inactive).

What about the GI50 (UO-31) of the same compound?
The GI50 was 27.2 µM (inactive).

What about the GI50 (RXF 631) of the same compound?
The GI50 was 52.7 µM (inactive).

What about the GI50 (SNB-75) of the same compound?
The GI50 was 40.8 µM (inactive).

What about the GI50 (M14) of the same compound?
Its GI50 is > 100 µM (inactive).

And the GI50 (DLD-1)?
The GI50 was > 100 µM (inactive).

And the GI50 (DMS-273)?
Its GI50 is 52 µM (inactive).

And the GI50 (DMS-114)?
Its GI50 is 80.7 µM (inactive).

And the GI50 (OVCAR-4)?
Its GI50 is > 100 µM (inactive).

What about the GI50 (SK-MEL-2) of the same compound?
The GI50 was > 100 µM (inactive).

What about the GI50 (Malme-3M) of the same compound?
Its GI50 is > 100 µM (inactive).

And the GI50 (IGROV-1)?
Its GI50 is 70.8 µM (inactive).

What about the GI50 (HT-29) of the same compound?
The GI50 was 59.4 µM (inactive).

What about the GI50 (XF498) of the same compound?
Its GI50 is 95.1 µM (inactive).

What about the GI50 (RPMI-8226) of the same compound?
Its GI50 is 53 µM (inactive).

What about the GI50 (SF-295) of the same compound?
The GI50 was > 100 µM (inactive).

What about the GI50 (A498) of the same compound?
Its GI50 is 61.2 µM (inactive).

And the GI50 (SN12C)?
Its GI50 is 71.4 µM (inactive).

What about the GI50 (NCI-H23) of the same compound?
The GI50 was > 100 µM (inactive).

And the GI50 (SNB-19)?
The GI50 was 97.1 µM (inactive).

What about the GI50 (HCT-116) of the same compound?
The GI50 was 80.7 µM (inactive).

And the GI50 (KM12)?
The GI50 was > 100 µM (inactive).

`COC(=O)C1C(=O)O[C@@H](c2ccc(OC)cc2OC)C1C(=O)OC` (some centres not stated) was tested. Which GI50 (OVCAR-3) did it give?
Its GI50 is > 100 µM (inactive).

And the GI50 (HCC 2998)?
Its GI50 is > 100 µM (inactive).

And the GI50 (OVCAR-8)?
The GI50 was > 100 µM (inactive).

What about the GI50 (COLO 205) of the same compound?
Its GI50 is > 100 µM (inactive).

And the GI50 (786-0)?
The GI50 was > 100 µM (inactive).

What about the GI50 (SF-268) of the same compound?
Its GI50 is > 100 µM (inactive).

What about the GI50 (UACC-257) of the same compound?
Its GI50 is > 100 µM (inactive).

And the GI50 (SK-MEL-5)?
Its GI50 is > 100 µM (inactive).

What about the GI50 (ACHN) of the same compound?
The GI50 was > 100 µM (inactive).

What about the GI50 (HOP-92) of the same compound?
Its GI50 is > 100 µM (inactive).

What about the GI50 (M19-MEL) of the same compound?
The GI50 was > 100 µM (inactive).

What about the GI50 (CAKI-1) of the same compound?
Its GI50 is > 100 µM (inactive).

And the GI50 (UACC-62)?
Its GI50 is > 100 µM (inactive).

What about the GI50 (LOX IMVI) of the same compound?
Its GI50 is > 100 µM (inactive).

And the GI50 (MOLT-4)?
The GI50 was > 100 µM (inactive).

And the GI50 (SK-OV-3)?
Its GI50 is > 100 µM (inactive).

And the GI50 (SK-MEL-28)?
Its GI50 is > 100 µM (inactive).

And the GI50 (RXF 393)?
Its GI50 is > 100 µM (inactive).

And the GI50 (LXFL 529)?
The GI50 was > 100 µM (inactive).

And the GI50 (HL-60)?
Its GI50 is > 100 µM (inactive).

And the GI50 (NCI-H226)?
Its GI50 is > 100 µM (inactive).

What about the GI50 (OVCAR-5) of the same compound?
Its GI50 is > 100 µM (inactive).

And the GI50 (U-251)?
Its GI50 is > 100 µM (inactive).

And the GI50 (CCRF-CEM)?
Its GI50 is > 100 µM (inactive).

What about the GI50 (SF-539) of the same compound?
The GI50 was > 100 µM (inactive).

What about the GI50 (NCI-H460) of the same compound?
The GI50 was > 100 µM (inactive).

What about the GI50 (KM-20L2) of the same compound?
The GI50 was > 100 µM (inactive).

What about the GI50 (SW-620) of the same compound?
The GI50 was > 100 µM (inactive).

What about the GI50 (HOP-62) of the same compound?
Its GI50 is > 100 µM (inactive).

And the GI50 (K562)?
Its GI50 is > 100 µM (inactive).

And the GI50 (UO-31)?
Its GI50 is > 100 µM (inactive).

What about the GI50 (SNB-78) of the same compound?
The GI50 was > 100 µM (inactive).

What about the GI50 (SR) of the same compound?
The GI50 was > 100 µM (inactive).

And the GI50 (SNB-75)?
Its GI50 is > 100 µM (inactive).

And the GI50 (M14)?
The GI50 was > 100 µM (inactive).

And the GI50 (DLD-1)?
Its GI50 is > 100 µM (inactive).

What about the GI50 (HOP-18) of the same compound?
Its GI50 is > 100 µM (inactive).

What about the GI50 (DMS-273) of the same compound?
The GI50 was > 100 µM (inactive).

And the GI50 (DMS-114)?
The GI50 was > 100 µM (inactive).

What about the GI50 (HCT-15) of the same compound?
Its GI50 is > 100 µM.

What about the GI50 (TK-10) of the same compound?
Its GI50 is > 100 µM (inactive).

What about the GI50 (OVCAR-4) of the same compound?
The GI50 was > 100 µM (inactive).

And the GI50 (Malme-3M)?
Its GI50 is > 100 µM (inactive).

And the GI50 (IGROV-1)?
The GI50 was > 100 µM (inactive).

What about the GI50 (HT-29) of the same compound?
The GI50 was > 100 µM (inactive).

What about the GI50 (XF498) of the same compound?
Its GI50 is > 100 µM (inactive).

What about the GI50 (RPMI-8226) of the same compound?
The GI50 was > 100 µM (inactive).

And the GI50 (SF-295)?
Its GI50 is > 100 µM (inactive).

What about the GI50 (A498) of the same compound?
The GI50 was > 100 µM (inactive).

And the GI50 (SN12C)?
The GI50 was > 100 µM (inactive).

What about the GI50 (NCI-H23) of the same compound?
Its GI50 is > 100 µM (inactive).

What about the GI50 (SNB-19) of the same compound?
The GI50 was > 100 µM (inactive).

What about the GI50 (HCT-116) of the same compound?
The GI50 was > 100 µM (inactive).

And the GI50 (EKVX)?
Its GI50 is > 100 µM (inactive).

What about the GI50 (A549) of the same compound?
Its GI50 is > 100 µM (inactive).

And the GI50 (KM12)?
The GI50 was > 100 µM (inactive).

Which results are given for `O=C(O)C1NCCc2c1[nH]c1ccccc21` (configuration not stated)?
GI50 (M19-MEL): > 100 µM (inactive); GI50 (LOX IMVI): > 100 µM (inactive); GI50 (LXFL 529): > 100 µM (inactive); GI50 (NCI-H226): > 100 µM (inactive); GI50 (OVCAR-5): > 100 µM (inactive); GI50 (NCI-H460): > 100 µM (inactive); GI50 (KM-20L2): > 100 µM (inactive); GI50 (UO-31): > 100 µM (inactive); GI50 (RXF 631): > 100 µM (inactive); GI50 (SNB-78): > 100 µM (inactive); GI50 (DLD-1): > 100 µM (inactive); GI50 (HOP-18): > 100 µM (inactive); GI50 (DMS-273): > 100 µM (inactive); GI50 (DMS-114): > 100 µM (inactive); GI50 (SK-MEL-2): > 100 µM (inactive); GI50 (SF-295): > 100 µM (inactive)
